Data as given in patent US20260306460A1, “COMPOSITION FOR REMOVING AND INHIBITING SENESCENT CELLS, AND USES THEREOF” (LIFECEUTIX CO., LTD., priority 2023, published 2026).

Tests used:
Type in all cases: in vivo, mouse
naturally aged mice = assay: p16, MMP3, IL6 mRNA in liver of naturally aged mice (qRT-PCR), Example 15; settings: untreated aged = 100%, 5 days; for p16 mRNA: LX-405 10 mg/kg ip, LX-801 100 mg/kg ip, LX-1102 100 mg/kg po, LX-1801 50 mg/kg ip, LX-2101 10 mg/kg ip, LX-3403 100 μg ip; for IL6 mRNA / MMP3 mRNA: doses as p16 mRNA
Method: In the same manner as in Example 7-1 of WO2023-085787 A1, naturally aged mice were administered LX-405 (5% DMSO in PBS solution, 10 mg/kg, intraperitoneal administration), LX-801 (PBS, 100 mg/kg, intraperitoneal administration), LX-1102 (0.5% CMC-Na solution, 100 mg/kg, oral administration), LX-1801 (PBS, 50 mg/kg, intraperitoneal administration), LX-2101 (0.5% CMC-Na solution, 10 mg/kg, intraperitoneal administration), and LX-3403 (mouse anti-PD-1 antibody (BioXcell), 100 μg, intraperitoneal administration) for 5 days under the following conditions. The control group was administered only the solution in the same volume. After drug administration was completed, the method described in each Example below was performed. The mouse was sacrificed in the same manner as Example 7-2 and 7-6 of WO2023-085787 A1. Total RNA was extracted from liver tissue, and qRT-PCR was performed and analyzed using synthesized cDNA. […] The mRNA amounts of p16, MMP3, and IL6 after natural aging were induced were calculated as 100% and compared them with the mRNA amounts of p16, MMP3, and IL6 after treatment with the test compound. Furthermore, an open field test was performed to analyze aging-related frailty in mice using the same method as Example 7-7 of WO2023-085787 A1. […] The amount of activity evaluated after inducing aging was calculated as 100% and compared it with the amount of activity evaluated after treatment with the test compound.

[1] = tested on: naturally aged C57BL6J mice; assay: p16 mRNA in organs of naturally aged mice, Example 21-2, Table 18; settings: 22-month-old naturally aged mice, untreated aged = 100%
Method: 22-month-old female C57BL6J mice (KRIBB Laboratory Animal Resource Center) were acclimated to the experimental environment for one week, after which the aged mice were randomly assigned to experimental and control groups. Eight-week-old, non-aged mice served as controls. LX-403 was mixed in a 10% ethanol solution of PEG400 and administered orally at a concentration of 25 mg/kg daily for 21 days, or administered to the skin, joints, or eyes at a concentration of 1 μM. LX-1801 was mixed in distilled water with 4% DMSO, 30% PEG300, and 5% Tween80 and administered to the skin, joints, or eyes at a concentration of 0.4 μM daily for 21 days. LX-2001 was mixed in PBS and administered to the skin, joints, or eyes at a concentration of […] daily for 21 days. LX-2002 was mixed in distilled water with 4% DMSO, 30% PEG300, and 5% Tween80 and administered to the skin, joints, or eyes at a concentration of 2 μM daily for 21 days. […] LX-2005 was mixed in distilled water with 4% DMSO, 30% PEG300, and 5% Tween80 and administered to the skin, joints, or eyes at a concentration of 90 μM daily for 21 days. LX-2007 was mixed in distilled water with 4% DMSO, 30% PEG300, and 5% Tween80 and administered to the skin, joints, or eyes at a concentration of 90 μM daily for 21 days. […] LX-3002 was mixed in distilled water with 4% DMSO, 30% PEG300, and 5% Tween80 and administered orally at a concentration of 10 mg/kg daily for 21 days. […] LX-5411 was mixed in 5% PBS and administered orally at a concentration of 10 mg/kg daily for 21 days or administered to the skin, joints, or eyes at a concentration of 3 μM. LX-5701 was mixed in PBS and administered orally at a concentration of 360 mg/kg daily for 21 days. LX-6807 was mixed in saline and administered intraperitoneally at a concentration of 1 mg/kg daily for 21 days. LX-2101 or LX-2102 was mixed in PBS solution with 5% DMSO and administered intraperitoneally at a concentration of 20 mg/kg or 10 mg/kg, respectively, daily for 21 days. The control group received only the solution in the same volume. After the end of drug administration, the methods described in each example below were performed.
Mice were sacrificed, and RNA was extracted from each organ tissue using the same method as in Example 7-2 of WO2023-085787 A1. qRT-PCR was performed with the synthesized cDNA. […] The amount of p16 mRNA after aging was calculated as 100% and compared with the amount of p16 mRNA after test compound treatment.

[2] = tested on: carbon tetrachloride-induced liver fibrosis C57BL6J mice; assay: Carbon tetrachloride liver disease in mice (p16, IL6, Col1a1 mRNA, AST), Example 26, Table 50; settings: daily for 21 days, untreated 100%; for Col1a1 mRNA / IL6 mRNA / p16 mRNA: liver
Method: Eight-week-old male C57BL6J mice (KRIBB Laboratory Animal Resource Center) were acclimated to the experimental environment for one week. Carbon tetrachloride (CCL4) was administered intraperitoneally at a concentration of 0.5 μl/g, and aging was induced for at least six weeks. The aging-induced mice were randomly assigned to experimental and control groups. […] The control group received only the solution in the same volume. After the drug administration was terminated, mice were sacrificed, and RNA was extracted from the liver in the same manner as in Example 7-2 of WO2023-085787 A1, and qRT-PCR was performed using the synthesized cDNA. […] The mRNA and AST amounts after aging was induced were calculated as 100% and compared with the mRNA amount of p16 after treatment with the test compound.

[3] = tested on: obesity-induced aged C57BL6J mice; assay: Fatty liver (Oil Red O, AST, ALT) in obesity-aged mice, Example 23-5, Table 45; settings: daily for 21 days, untreated 100%; for ALT / AST: serum; for Oil Red O: staining area, liver
Method: After acclimation to the experimental environment for one week, the mice were randomly assigned to experimental and control groups. […] The control group received only the solution in the same volume. After the end of drug administration, the methods described in each example below were performed.

Molecule	p16 mRNA (naturally aged mice)	IL6 mRNA (naturally aged mice)	MMP3 mRNA (naturally aged mice)	p16 mRNA (%), Brain [1] [%]	p16 mRNA (%), Eye [1] [%]	p16 mRNA (%), Femur [1] [%]	p16 mRNA (%), Heart [1] [%]	p16 mRNA (%), Kidney [1] [%]	p16 mRNA (%), Knee joint [1] [%]	p16 mRNA (%), Liver [1] [%]	p16 mRNA (%), Lung [1] [%]	p16 mRNA (%), Muscle [1] [%]	p16 mRNA (%), Skin [1] [%]	p16 mRNA (%), eWAT [1] [%]	Col1a1 mRNA [2]	IL6 mRNA [2]	p16 mRNA [2]	Serum AST [2]	ALT [3]	Oil Red O [3]	also measured
COC(=O)c1ccc([C@H]2c3[nH]c4ccccc4c3C[C@H](C(=O)OC)N2C(=O)CCl)cc1 [LX-405]	76.9 (±6.8) %	73.6 (±7.4) %	64.7 (±11.5) %	–	–	–	–	–	–	–	–	–	–	–	–	–	–	–	–	–	–
S=C(N/N=C1\CCCc2cccnc21)N1CCN(c2ccccn2)CC1 [LX-801]	69.4 (±6.9) %	71.1 (±1.8) %	76.5 (±4.2) %	–	–	–	–	–	–	–	–	–	–	–	–	–	–	–	–	–	–
C[C@@H]1CC[C@@]23C[C@H](O)C(=O)[C@@]2(O)[C@]1(C)[C@H](OC(=O)CCl)C[C@@H](C1=CCn2c(=O)n(-c4ccccc4)c(=O)n2C1)[C@@H]3C [LX-1801, (2S,3aS,4S,5R,7R,8S,8aS,11R)-7-(1,3-Dioxo-2-phenyl-2,3,5,8-tetrahydro-1H-[1,2,4]triazolo[1,2-a]pyridazin-6-yl)-2,3a-dihydroxy-4,8,11-trimethyl-3-oxooctahydro-1H-4,8a-propanoazulen-5-yl 2-Chloroacetate]	77.4 (±5.2) %	56.8 (±19.3) %	47.1 (±15.6) %	–	–	–	–	–	–	–	–	–	–	–	–	–	–	–	–	–	–
CC1(C)CC[C@]2(NC(=O)C(C)(F)F)CC[C@]3(C)[C@H](C(=O)C=C4[C@@]5(C)C=C(C#N)C(=O)C(C)(C)[C@@H]5CC[C@]43C)[C@@H]2C1 [LX-2101, Omaveloxolone]	62.5 (±13.1) %	64.1 (±8.8) %	53.6 (±14.3) %	62	62	61	78	46	75	62	54	82	80	42	–	–	–	–	–	–	–
COC(=O)[C@]12CCC(C)(C)C[C@H]1[C@H]1C(=O)C=C3[C@@]4(C)C=C(C#N)C(=O)C(C)(C)[C@@H]4CC[C@@]3(C)[C@]1(C)CC2 [LX-2102, Bardoxolone methyl]	–	–	–	85	72	64	81	53	64	58	71	75	77	39	–	–	–	–	–	–	–
CCCC\C=C/C=C/C=C\CCCCCCCC(=O)O [LX-2707, Punicic acid]	–	–	–	–	–	–	–	–	–	–	–	–	–	–	76 (±2.5) %	56 (±2.1) %	68 (±1.6) %	79 (±5.6) %	64 (±3.1) %	67 (±1.7) %	AST [3]: 75 (±2.1) %
O=C1C2CCN(CC2)C1CNC(=O)C(F)(F)F (stereo not drawn) [LX-5701]	–	–	–	71	63	70	72	42	66	34	58	64	75	51	62 (±6.7) %	53 (±17.6) %	70 (±6.2) %	77 (±8.0) %	64 (±7.9) %	55 (±17.2) %	AST [3]: 69 (±8.8) %
Cc1cccc([C@H](C)c2cnc[nH]2)c1C [LX-6807, Dexmedetomidine]	–	–	–	–	–	–	–	–	–	–	–	–	–	–	51 (±3.1) %	58 (±2.6) %	67 (±3.0) %	75 (±1.4) %	70 (±6.4) %	53 (±3.9) %	AST [3]: 66 (±4.4) %
Tocofersolan [LX-3001]	–	–	–	–	–	–	–	–	–	–	–	–	–	–	71 (±2.4) %	65 (±3.4) %	76 (±3.7) %	82 (±4.5) %	71 (±1.3) %	83 (±4.0) %	–
